*1 amine or outer side, *2 acyl side, *3 side chain or, on linkers, in order; H or OH if unused. Where a SMILES comes first, the peptide text is derived from it. Bridges are numbered along the chain shown (N, C = ends). Side-chain parts run from the residue outwards. [ ]: non-standard residue; d: D form. The star is where a group is joined. NH(1-deoxy-D-glucityl) = OC[C@@H](O)[C@@H](O)[C@H](O)[C@@H](O)CN*; DOTA = O=C(O)CN1CCN(CC(=O)O)CCN(CC(=O)*)CCN(CC(=O)O)CC1; Trp(5-Cl) = N[C@@H](Cc1c[nH]c2ccc(Cl)cc12)C(=O)O; Pyridine(2,6-diCH2) = c1cc(C[*:1])nc(C[*:2])c1; Pro(4R-NH2) = N[C@H]1CN[C@H](C(=O)O)C1; Glutaryl = O=C(CCCC(=O)[*:2])[*:1]; X1 = O=C(CN1CCC(N[*:1])CC1)[*:2]; Api = NC1(C(=O)O)CCNCC1; AEEA = NCCOCCOCC(=O)O
biological target: T1, GIPR (CHO-K1-hGIPR cells) (Homo sapiens, UniProt P48546); experiment: FACS binding assay; settings: competition with 20 nM GIP-057, 4° C., 1 hour, read-out: pIC50 Category (converted)
T1 construct: host or cells: CHO-K1
T1 sequence (P48546 22-466): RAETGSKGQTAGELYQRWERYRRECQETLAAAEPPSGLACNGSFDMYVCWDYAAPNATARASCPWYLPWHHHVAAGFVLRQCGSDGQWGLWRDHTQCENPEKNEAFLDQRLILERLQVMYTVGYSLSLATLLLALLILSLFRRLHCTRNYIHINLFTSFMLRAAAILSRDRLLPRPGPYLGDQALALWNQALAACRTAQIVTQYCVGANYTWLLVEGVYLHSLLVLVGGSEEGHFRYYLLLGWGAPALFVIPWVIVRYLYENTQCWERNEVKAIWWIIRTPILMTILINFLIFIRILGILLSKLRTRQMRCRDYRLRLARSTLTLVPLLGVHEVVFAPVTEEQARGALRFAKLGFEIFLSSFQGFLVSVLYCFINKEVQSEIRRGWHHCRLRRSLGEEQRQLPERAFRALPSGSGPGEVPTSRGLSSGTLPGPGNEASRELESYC
Experimental: In order to determine binding of compounds according to the present invention to GIPR-expressing cells, a FACS binding assay was established.
CHO-K1-hGIPR cells (GenScript Biotech, #M00486) were cultured in Ham's F12 medium (Sigma-Aldrich, #N4888) including 10% fetal calf serum (FCS), 2 mM L-glutamine, 100 U/mL penicillin, 100 μg/mL streptomycin, 200 μg/mL Zeocin and 100 μg/mL HygromycinB. Cells were detached with Accutase (Biolegend, #BLD-423201) and washed in FACS buffer (PBS including 1% FCS). Cells were diluted in FACS buffer to a final concentration of 500.000 cells per mL. 200 μL of the cell suspension were transferred to a u-shaped non-binding 96-well plate (Greiner) and cells were washed in ice-cold FACS buffer.
Cells were washed twice in FACS buffer. An additional incubation step with 1 μg/mL APC-Streptavidin (Miltenyi; #130-106-791) in 50 μL FACS buffer for 30 min on ice was performed followed by two washes with FACS buffer.
Cells were analyzed in an Attune NxT flow cytometer. Median fluorescence intensities (MFI) of the APC/Cy5-channel were calculated by Attune NxT software. MFI values were plotted against peptide concentration and four parameter logistic (4PL) curve fitting and EC50/pEC50 or IC50/pIC50 calculations were performed using ActivityBase software.

IC50, < 10 nM:
CC[C@H](C)[C@@H]1NC(=O)[C@H](CC(C)C)NC(=O)C2(CCN(C(=O)CCCC(=O)NC[C@H](O)[C@@H](O)[C@H](O)[C@H](O)CO)CC2)NC(=O)[C@@H](NC(=O)[C@@H](CC(C)C)NC(=O)[C@H](CCC(=O)O)NC(=O)[C@@H]2C[C@@H](N)CN2C(=O)[C@H](Cc2c[nH]c3ccc(Cl)cc23)NC(=O)[C@H](Cc2c[nH]c3ccccc23)NC(=O)[C@H](CC(=O)O)NC(=O)COCCOCCNC(=O)[C@@H](CCC(=O)NC[C@H](O)[C@@H](O)[C@H](O)[C@H](O)CO)NC(=O)CN2CCN(CC(=O)O)CCN(CC(=O)O)CCN(CC(=O)O)CC2)CSCc2cccc(n2)CSC[C@@H](C(=O)NC2CCN(CC(=O)N[C@H](CCC(=O)NC[C@H](O)[C@@H](O)[C@H](O)[C@H](O)CO)C(N)=O)CC2)NC1=O [GIP-009, DOTA-glu(AGLU)-O2Oc-Asp-Trp-5Clw-Tap-Glu-leu-[Cys(2Lut)-Apc(AGLU-Glutar)-Leu-Ile-Cys]-APAc-glu(AGLU)-NH2] ({DOTA}-[dE](NH(1-deoxy-D-glucityl))[AEEA]DW[Trp(5-Cl)][Pro(4R-NH2)]E[dL]C[Api]([Glutaryl-NH(1-deoxy-D-glucityl)])LIC[X1][dE](NH(1-deoxy-D-glucityl))-NH2; linker 9-13 via Pyridine(2,6-diCH2))
CC[C@H](C)[C@@H]1NC(=O)[C@H](CC(C)C)NC(=O)C2(CCN(C(=O)CCCC(=O)NC[C@H](O)[C@@H](O)[C@H](O)[C@H](O)CO)CC2)NC(=O)[C@@H](NC(=O)[C@@H](CC(C)C)NC(=O)[C@H](CCC(=O)O)NC(=O)[C@@H]2C[C@@H](N)CN2C(=O)[C@H](Cc2c[nH]c3ccc(Cl)cc23)NC(=O)[C@H](Cc2c[nH]c3ccccc23)NC(=O)[C@H](CC(=O)O)NC(=O)CN2CCC(NC(=O)CN3CCN(CC(=O)O)CCN(CC(=O)O)CCN(CC(=O)O)CC3)CC2)CSCc2cccc(n2)CSC[C@@H](C(=O)NC2CCN(CC(=O)N[C@H](CCC(=O)NC[C@H](O)[C@@H](O)[C@H](O)[C@H](O)CO)C(N)=O)CC2)NC1=O [GIP-012, DOTA-APAc-Asp-Trp-5Clw-Hyp-Glu-leu-[Cys(2Lut)-Apc(AGLU-Glutar)-Leu-Ile-Cys]-APAc-glu(AGLU)-NH2] ({DOTA}-[X1]DW[Trp(5-Cl)][Pro(4R-NH2)]E[dL]C[Api]([Glutaryl-NH(1-deoxy-D-glucityl)])LIC[X1][dE](NH(1-deoxy-D-glucityl))-NH2; linker 8-12 via Pyridine(2,6-diCH2))
CC[C@H](C)[C@@H]1NC(=O)[C@H](CC(C)C)NC(=O)C2(CCN(C(=O)CN3CCN(CC(=O)O)CCN(CC(=O)O)CCN(CC(=O)O)CC3)CC2)NC(=O)[C@@H](NC(=O)[C@@H](CC(C)C)NC(=O)[C@H](CCC(=O)O)NC(=O)[C@@H]2C[C@@H](N)CN2C(=O)[C@H](Cc2c[nH]c3ccc(Cl)cc23)NC(=O)[C@H](Cc2c[nH]c3ccccc23)NC(=O)[C@H](CC(=O)O)NC(=O)CN2CCC(NC(=O)CCCC(=O)NC[C@H](O)[C@@H](O)[C@H](O)[C@H](O)CO)CC2)CSCc2cccc(n2)CSC[C@@H](C(=O)NC2CCN(CC(=O)N[C@H](CCC(=O)NC[C@H](O)[C@@H](O)[C@H](O)[C@H](O)CO)C(N)=O)CC2)NC1=O [GIP-013, AGLU-Glutar-APAc-Asp-Trp-5Clw-Tap-Glu-leu-[Cys(2Lut)-Apc(DOTA)-Leu-Ile-Cys]-APAc-glu(AGLU)-NH2] ({NH(1-deoxy-D-glucityl)-Glutaryl}-[X1]DW[Trp(5-Cl)][Pro(4R-NH2)]E[dL]C[Api](DOTA)LIC[X1][dE](NH(1-deoxy-D-glucityl))-NH2; linker 8-12 via Pyridine(2,6-diCH2))
